According to patent publication US20260375265A1, “COMPOSITION FOR ALLEVIATING SKIN PIGMENTATION” (LG H & H CO., LTD., priority 2023, published 2026):

Tests used:
[1] = tested on: mouse melanoma cells; assay: Inhibition of melanin production increased by UVB (scattered dark spots); type: cell-based; details: light or radiation study, 48 h, 25 ppm DIPA alone, UVB 30 mJ/cm^2, two days, FIG. 4, read-out: reduction of melanin production (Y)
Description: In detail, mouse melanoma cells were seeded at 2*10^5 cells/well in 6-well plates and cultured in a 37 °C/5% CO2 incubator for one day, followed by irradiation with 30 mJ/cm^2 of UVB (312 nm). Each of media comprising appropriate concentrations and combinations of substances was added and cultured again in a 37 °C/5% CO2 incubator for two days to determine whether or not the substances inhibited the melanin production increased by UVB. Cells attached to the plates were collected in PBS and centrifuged to obtain cell pellets. The cell pellets were visually inspected and photographed. The cell pellets were dissolved in a 1 N NaOH (sodium hydroxide) solution comprising 10% dimethyl sulfoxide (DMSO) at 80 °C for 10 minutes, and placed in a 96-well plate, and absorbance at 405 nm was measured using an Epoch (Biotek) instrument. Melanin was quantified using the measured absorbance and normalized to the sample protein concentration to determine melanin concentration. The inhibition rate of melanin production of the sample was calculated as a ratio of the melanin concentration of the sample treatment group with respect to the melanin concentration increased by UVB.
E=(X+Y)−(X*Y/100) Colby equation

[2] = tested on: RAB11FIP2; assay: qPCR of RAB11FIP2 mRNA expression in UVB-irradiated mouse melanoma cells; type: cell-based; details: B16F10, UVB 30 mJ/cm^2 (312 nm), substance one day, appropriate concentration; FIG. 1; UVB alone decreased
Description: (§1) Screening was performed for substances that influence the expression of genes associated with scattered dark spots on skin among various substances having skin-improving efficacy. Changes in the expression of genes associated with scattered dark spots on skin were examined in cells where melanin synthesis was increased by UVB exposure, and substances that restored the expression to the level before UVB exposure were selected.
(§2) Mouse melanoma cells (B16F10; CRL-6475) were purchased from ATCC for use. The purchased cells were cultured in a 37 °C/5% CO2 incubator using a medium prepared by supplementing Dulbecco's Modified Eagle Medium (DMEM-GIBCO) with 10% fetal bovine serum (FBS) and 1% penicillin/streptomycin.
To analyze the efficacy on changes in the mRNA expression of genes associated with scattered dark spots on skin, mouse melanoma cells were seeded at 2*10^5 cells/well in 6-well plates and cultured in a 37 °C/5% CO2 incubator for one day. After replacing the medium with PBS, 30 mJ/cm^2 of UVB (312 nm) was irradiated using an RMX 3W (Vilber Lourmat) instrument. Substances were added to the medium at appropriate concentrations and cultured for one day under the same conditions. […] The expression level of each gene was analyzed by performing qPCR using synthesized cDNA and taqman probe (assay ID: AKAP1-Mm00501539_m1, RAB11FIP2-Mm01261268_m1, PPARGC1B-Mm00504730_m1).

[3] = tested on: PPARGC1B; assay: qPCR of PPARGC1B mRNA expression in UVB-irradiated mouse melanoma cells; type: cell-based; details: B16F10, UVB 30 mJ/cm^2 (312 nm), substance one day, appropriate concentration; FIG. 1; UVB alone decreased
Description: as §1, §2
To analyze the efficacy on changes in the mRNA expression of genes associated with scattered dark spots on skin, mouse melanoma cells were seeded at 2*10^5 cells/well in 6-well plates and cultured in a 37 °C/5% CO2 incubator for one day. After replacing the medium with PBS, 30 mJ/cm^2 of UVB (312 nm) was irradiated using an RMX 3W (Vilber Lourmat) instrument. Substances were added to the medium at appropriate concentrations and cultured for one day under the same conditions. Thereafter, total RNA was obtained using AccuPrep Universal RNA Extraction Kit (Bioneer, K-3140), and cDNA was synthesized using AccuPower® RocketScript Cycle (Bioneer, K-2202). The expression level of each gene was analyzed by performing qPCR using synthesized cDNA and taqman probe (assay ID: AKAP1-Mm00501539_m1, RAB11FIP2-Mm01261268_m1, PPARGC1B-Mm00504730_m1).

[4] = general description; very acidic; concentration not given; cited from earlier work
[5] = general description; cited from earlier work
[6] = tested on: KITLG; assay: qPCR of KITLG mRNA expression in UVB-irradiated human keratinocytes (HaCaT); type: cell-based; details: UVB 30 mJ/cm^2 (312 nm), substance one day, appropriate concentration, FIG. 2, UVB alone increased
Description: Screening was performed for substances that influence the expression of genes associated with dark skin tone among various substances having skin-improving efficacy. Changes in the expression of genes associated with dark skin tone were examined in cells where melanin synthesis was increased by a-MSH, and substances that restored the expression to the level before a-MSH treatment were selected.
To analyze the efficacy on changes in the mRNA expression of genes associated with dark skin tone, RT-qPCR experiment was conducted. Cells were cultured in a 37 °C/5% CO2 incubator for one day. To assess the change of KITLG expression by UVB, the medium of human keratinocytes (HaCaT) was replaced with PBS, and 30 mJ/cm^2 of UVB (312 nm) was irradiated using an RMX 3W (Vilber Lourmat) instrument. The medium was replaced with a fresh medium and cultured for one day. To assess the change in KITLG expression by treatment with substances, the cells were treated with appropriate concentrations of substances along with a fresh medium and cultured for one day. […] The expression level of each gene was analyzed by performing qPCR using synthesized cDNA and taqman probe (assay ID: OCA2-Mm00498969_m1, BNC2-Mm00556284_m1, RAB32-Mm00458960_m1, KITLG-Hs00241497_m1).

[7] = tested on: ASCL2; assay: qPCR of ASCL2 mRNA expression in a-MSH-treated B16F10 cells; type: cell-based, mouse; details: B16F10, 10 nM a-MSH plus substance, one day, appropriate concentration; FIG. 3
Description: (§3) Screening was performed for substances that influence the expression of genes associated with spot pigmentation among various substances having the skin-improving efficacy. Changes in the expression of genes associated with spot pigmentation were examined in cells where melanin synthesis was increased by a-MSH, and substances that restored the expression to the level before a-MSH treatment were selected.
as §2
To analyze the efficacy on changes in the mRNA expression of genes associated with skin spot pigmentation, mouse melanoma cells were seeded at […] cells/well in 6-well plates and cultured in a 37 °C/5% CO2 incubator for one day. After replacing the medium with a fresh medium, 10 nM α-MSH was treated, and substances were added to the medium at appropriate concentrations and cultured for one day under the same conditions. […] The expression level of each gene was analyzed by performing qPCR using synthesized cDNA and taqman probe (assay ID: ASCL2-Mm01268891_m1, PPARGC1B-Mm00504730_m1, TP63-Hs00978349_m1).

[8] = tested on: dark skin tone; assay: Human application trial: customized prescription for high-risk group of dark skin tone; type: in vivo; details: twice daily, four weeks
Description: Accordingly, it was aimed to provide substances capable of increasing the improvement efficiency of dark skin tone according to the risk level of developing dark skin tone.
After receiving approval from the Institutional Review Board (IRB, Korea) (LG-SKEV-2022-09-A), the study was conducted in accordance with the standard operating guidelines and clinical trial standards of the Institutional Review Board of LG Household & Health Care Co., Ltd. Nine healthy adult subjects aged 20-50 with no apparent skin abnormalities were selected.
Based on the genetic polymorphic markers associated with skin tone brightness in Table 2, subjects were classified into low-risk and high-risk groups according to their risk level of developing dark skin tone as follows. • Risk scores (the sum of each genotype multiplied by its respective effect size (β)) for the five genetic markers were less than −0.193→low-risk group (n=4). • Risk scores (the sum of each genotype multiplied by its respective effect size (β)) for the five genetic markers were −0.193 or higher→high-risk group (n=5).
The same as in Example 4-2 […]
PIE's Janus3 was used to photograph the front and side of the face under normal, polarized, and UV light. […] The pigmentation improvement was calculated by determining the increase in the skin tone brightness values after four weeks of use compared to the skin tone brightness values before use.

[9] = tested on: PPARGC1B; assay: qPCR of PPARGC1B mRNA expression in a-MSH-treated B16F10 cells; type: cell-based, mouse; details: B16F10, 10 nM a-MSH plus substance, one day, appropriate concentration; FIG. 3
Description: as §3, §2
To analyze the efficacy on changes in the mRNA expression of genes associated with skin spot pigmentation, mouse melanoma cells were seeded at […] cells/well in 6-well plates and cultured in a 37 °C/5% CO2 incubator for one day. After replacing the medium with a fresh medium, 10 nM α-MSH was treated, and substances were added to the medium at appropriate concentrations and cultured for one day under the same conditions. Thereafter, total RNA was obtained using AccuPrep Universal RNA Extraction Kit (Bioneer, K-3140), and cDNA was synthesized using AccuPower® RocketScript™ Cycle (Bioneer, K-2202). The expression level of each gene was analyzed by performing qPCR using synthesized cDNA and taqman probe (assay ID: ASCL2-Mm01268891_m1, PPARGC1B-Mm00504730_m1, TP63-Hs00978349_m1).

[10] = tested on: scattered dark spots on skin; assay: Human application trial: customized prescription for high-risk group of scattered dark spots; type: in vivo; details: twice daily, four weeks
Description: Accordingly, it was aimed to provide specific substances capable of increasing the improvement efficiency of scattered dark spots according to the risk level of developing scattered dark spots on skin, dark skin tone, and/or spot pigmentation.
After receiving approval from the Institutional Review Board (IRB, Korea) (LG-SKEV-2022-09-A), the study was conducted in accordance with the standard operating guidelines and clinical trial standards of the Institutional Review Board of LG Household & Health Care Co., Ltd. Ten healthy adult subjects aged 20-50 with no apparent skin abnormalities were selected. […]
PIE's Janus3 was used to photograph the front and side of the face under normal, polarized, and UV light. […] The pigmentation improvement rate (%) was calculated by determining the percentage reduction in the pigmentation values after four weeks of use compared to the polarized pigmentation values before use.

[11] = 8% vitamin C essence, high-risk group (n=5)

CC(C)OC(=O)CCCCC(=O)OC(C)C [diisopropyl adipate (DIPA), diisopropyl adipate]
inhibition at 25 ppm [1]: ~1.5%
change of RAB11FIP2 expression [2]: increasing

O=C(O)c1ccccc1O [salicylic acid, reference compound]
change of PPARGC1B expression [3]: increased
pH [4]: 2.4

NC(=O)c1cccnc1 [niacinamide, reference compound]
change of PPARGC1B expression [3]: increased
solubility in water [5]: dissolves well in water

O=c1cc(-c2ccccc2)oc2cc(O)cc(O)c12 [chrysin, 5,7-dihydroxyflavone]
change of KITLG expression [6]: decreasing

tocopherol
change of ASCL2 expression [7]: decreasing

O=C1O[C@H]([C@@H](O)CO)C(O)=C1O [ascorbic acid]
pigmentation improvement in the high-risk group [8, 11]: did not improve pigmentation
pigmentation improvement in the low-risk group ([8]; low-risk group (n=4), FIGS. 12, 13): slightly improved pigmentation
change of PPARGC1B expression [9]: increased
pigmentation improvement in the high-risk group [10, 11]: did not improve pigmentation
pigmentation improvement in the low-risk group ([10]; low-risk group (n=5), FIGS. 10, 11): did not improve pigmentation
